This is an account of results in patent publication US6124477A, “Anti-first-pass effect compounds” (priority 1997, dated 2000).

Where two headings read alike, the source gives them in different places.

The test system of data set [1] is Human Cytochrome P450. In words: Determination of first-pass effectiveness of furocoumarins (human cytochrome P450-mediated biotransformation, Protocol C / C'). The data set is classed as in vitro ADME. As to the method:
The process of preparing incubation mixtures begins by mixing 10 uL of ethanol or an ethanolic solution containing an inhibitor with 100 uL of 100 mg/mL bovine serum albumin (Sigma) dissolved in reaction buffer at room temperature. Reaction buffer is composed of 0.10 M sodium phosphate, 1.0 mM ethylenediaminetetraacetic acid, and 5.0 mM magnesium chloride, pH 7.4 (all reagents: Fisher Scientific). Inhibitory chemicals used were ketoconazole (Research Diagnostics, Inc.), miconazole, bergapten, xanthotoxin (previous three from Sigma), bergamotin, imperatorin, isopimpinellin, psoralen, angelicin (previous five from Indofine Chemical Company, Inc.), and fractions or precipitates resulting from Protocols A, A', B, B', or B" above. When possible, final inhibitor concentrations were expressed in molarity by calculation from the weighed material or by interpolation from HPLC calibration curves prepared with reference materials; otherwise, concentrations are expressed as weight per volume. Reaction tubes are placed on ice in preparation for the manipulations that follow. Sufficient reaction buffer is added so that the final volume of each tube will be 500 uL, 5 uL of a 100-fold concentrate for generating reduced nicotinamide adenine dinucleotide phosphate is added (such that completed reaction mixture contains 1.0 mM nicotinamide adenine dinucleotide phosphate, 1 U/mL glucose-6-phosphate dehydrogenase, and 10 mM glucose-6-phosphate; all from Sigma), and then human hepatic S9 (Anatomic Gift Foundation) is thawed and added in sufficient amounts to cause readily detectable amounts of metabolites to be formed in control reactions (amount necessary varies among individuals, but 10 uL is typical).
The samples prepared above are readied for HPLC assessment using the protocol that follows. Each tube is vortex mixed and centrifuged for 10 min at setting 35, the resulting supernatant is transferred to a clean tube, and the liquid is evaporated using a Speed Vac apparatus. The residue in each tube is first dissolved in 40 uL 1:1 acetonitrile:water, 2.5 mL of acetonitrile is added, and the centrifuge-transfer-evaporate step just described is repeated.
Linear gradients are used for elution and are formed by mixing mobile phase A composed of water with mobile phase B composed of 0.025% (v/v) formic acid in acetonitrile (instrument: Hewlett Packard). The elution time, in minutes, the percentage of mobile phase B present in the mixed mobile phase, and the flow rate (mL/min) are as follows: 0, 10, 0.10; 2, 10, 0.10; 3.5, 10, 0.20; 4, 10, 0.25; 5, 10, 0.25; 30, 55, 0.25; 32, 98, 0.25; 33, 98, 0.40; 39.8, 98, 0.40; 40, 98, 0.25; 45, 10, 0.25; 45.25, 10, 0.20; 50, 10, 0.20; 50.25, 10, 0.10. The chromatographic column has dimensions of 150 mm length×2.1 mm internal diameter, is packed with a proprietary material (Prism, Keystone Scientific, Inc.), is protected with a 2 mm internal diameter column containing the same material and with a PTFE filter, and is maintained at 35+/-0.2° C. The dry sample residue is mixed with 60 uL of 1:1 acetonitrile:water followed by 40 uL water just prior to each 50.25 min run cycle. The column eluate from each 10 uL injection is monitored for fluorescence with excitation at 228 nm, emission at 291 nm, and bandpass filtration at 280 nm.
The process of preparing incubation mixtures begins by mixing 10 uL of ethanol (control reactions) or an ethanolic solution containing an inhibitor with 100 uL of 100 mg/mL bovine serum albumin (Sigma) dissolved in reaction buffer at room temperature. Reaction buffer is composed of 0.10 M sodium phosphate, 1.0 mM ethylenediaminetetraacetic acid, and 5.0 mM magnesium chloride, pH 7.4 (all reagents: Fisher Scientific). […] Final inhibitor concentrations were expressed in molarity by calculation from the weighed material or by use of Beer's law. Reaction tubes are placed on ice in preparation for the manipulations that follow. […]

The conditions of data set [2]: in vivo; cited from earlier work.
In a further data set the test system is cytochrome P450. The conditions noted are these: given to humans in large doses; cited from earlier work.
Data set [3] deals with first-pass effect. The conditions noted are these: in vivo; cited from earlier work.
Data set [4] concerns first-pass effect. The conditions noted are these: inhibitors commonly given to humans; cited from earlier work.
In data set [5] the test system is Human Cytochrome P450. In words: Protocol C': generation of saquinavir metabolites by human hepatic S9 in the presence of inhibitor. The class given is in vitro ADME. The protocol: The process of preparing incubation mixtures begins by mixing 10 uL of ethanol (control reactions) or an ethanolic solution containing an inhibitor with 100 uL of 100 mg/mL bovine serum albumin (Sigma) dissolved in reaction buffer at room temperature. Reaction buffer is composed of 0.10 M sodium phosphate, 1.0 mM ethylenediaminetetraacetic acid, and 5.0 mM magnesium chloride, pH 7.4 (all reagents: Fisher Scientific). […] Final inhibitor concentrations were expressed in molarity by calculation from the weighed material or by use of Beer's law. Reaction tubes are placed on ice in preparation for the manipulations that follow. Sufficient reaction buffer is added so that the final volume of each tube will be 500 uL, 5 uL of a 100-fold concentrate for generating reduced nicotinamide adenine dinucleotide phosphate is added (such that completed reaction mixture contains 1.0 mM nicotinamide adenine dinucleotide phosphate, 1 U/mL glucose-6-phosphate dehydrogenase, and 10 mM glucose-6-phosphate; all from Sigma), and then human hepatic S9 (Anatomic Gift Foundation) is thawed and added in sufficient amounts to cause readily detectable amounts of metabolites to be formed in control reactions (amount necessary varies among individuals, but 10 uL is typical). […]
The samples prepared above are readied for HPLC assessment using the protocol that follows. […]

As to `O=c1ccc2cc3ccoc3cc2o1` [psoralen], in the data set on Human Cytochrome P450 [1] (determined herein), the first-pass effect effectiveness result is listed as “ineffective”. Further, in data set [2], the phototoxicity entry is recorded as “phototoxic”. For the same molecule, in the data set on cytochrome P450, the “inhibition of cytochrome P450” value is “do inhibit cytochrome P450”.

As for `CCC(C)n1ncn(-c2ccc(N3CCN(c4ccc(OCC5COC(Cn6cncn6)(c6ccc(Cl)cc6Cl)O5)cc4)CC3)cc2)c1=O` (stereo not drawn) [itraconazole], the “inhibition of the first-pass effect” value in the data set with first-pass effect [3] is “inhibitors of the first-pass effect”.

As for `C/C(=C\COc1ccc2ccc(=O)oc2c1)CCC(O)C(C)(C)O` (stereo not drawn) [marmin], the first-pass effect effectiveness result in the data set on Human Cytochrome P450 [1] is reported as “ineffective”.

In the case of `OC(Cn1cncn1)(Cn1cncn1)c1ccc(F)cc1F` [fluconazole], in the data set on first-pass effect [3], the “inhibition of the first-pass effect” value is recorded as “inhibitors of the first-pass effect”.

Regarding `CC[C@H]1OC(=O)[C@H](C)[C@@H](O[C@H]2C[C@@](C)(OC)[C@@H](O)[C@H](C)O2)[C@H](C)[C@@H](O[C@@H]2O[C@H](C)C[C@H](N(C)C)[C@H]2O)[C@](C)(O)C[C@@H](C)C(=O)[C@H](C)[C@@H](O)[C@]1(C)O` [erythromycin], in the data set with first-pass effect [3], the “inhibition of the first-pass effect” value is on record as “inhibitors of the first-pass effect”.

For the molecule `CO[C@H]1C[C@H](O[C@H]2[C@H](C)[C@@H](O[C@@H]3O[C@H](C)C[C@H](N(C)C)[C@H]3OC(C)=O)[C@@H](C)C[C@@]3(CO3)C(=O)[C@H](C)[C@@H](OC(C)=O)[C@@H](C)[C@@H](C)OC(=O)[C@@H]2C)O[C@@H](C)[C@@H]1OC(C)=O` [troleandomycin], the “inhibition of the first-pass effect” value in the data set with first-pass effect [3] was “inhibitors of the first-pass effect”.

As to `O=c1ccc2ccc3occc3c2o1` [angelicin], the first-pass effect effectiveness result in the data set on Human Cytochrome P450 [1] (determined herein) is “ineffective”.

On to `COc1c2ccoc2c(OC)c2oc(=O)ccc12` [isopimpinellin], for which, in the data set on Human Cytochrome P450 [1] (determined herein), the first-pass effect effectiveness entry is recorded as “ineffective”.

As for `COc1c2ccoc2cc2oc(=O)ccc12` [bergapten, 5-methoxypsoralen], the phototoxicity entry in data set [2] is listed as “phototoxic”.

On to `Clc1ccc(COC(Cn2ccnc2)c2ccc(Cl)cc2Cl)c(Cl)c1` (stereo not drawn) [miconazole], for which, in the data set on first-pass effect [3], the “inhibition of the first-pass effect” value is “inhibitors of the first-pass effect”.

For the molecule `C/C(=C\COc1c2ccoc2cc2oc(=O)ccc12)CCC(O)C(C)(C)O` (stereo not drawn) [6', 7'-dihydroxybergamottin], the first-pass effect effectiveness entry in the data set with Human Cytochrome P450 [1] is recorded as “ineffective”.

Regarding `Cc1nnc2n1-c1ccc(Cl)cc1C(c1ccccc1Cl)=NC2` [triazolam], the “bioavailability in presence of inhibitors” value with first-pass effect [4] is on record as “bioavailability is increased by inhibitors commonly given to humans”.

For the molecule `Cc1ncc2n1-c1ccc(Cl)cc1C(c1ccccc1F)=NC2` [midazolam], the “bioavailability in presence of inhibitors” value in the data set with first-pass effect [4] is on record as “bioavailability is increased by inhibitors commonly given to humans”.

Turning to `COc1c2occc2cc2ccc(=O)oc12` [xanthotoxin, 8-methoxypsoralen], in data set [2], the phototoxicity result is recorded as “phototoxic”.

As for `CC(=O)N1CCN(c2ccc(OCC3COC(Cn4ccnc4)(c4ccc(Cl)cc4Cl)O3)cc2)CC1` (stereo not drawn) [ketoconazole], in the data set on first-pass effect [3], the “inhibition of the first-pass effect” value is “inhibitors of the first-pass effect”.

With `CC(C)=CCOc1c2occc2cc2ccc(=O)oc12` [imperatorin], in the data set on Human Cytochrome P450 [1] (determined herein), the first-pass effect effectiveness result was “ineffective”. Moreover, in the data set on Human Cytochrome P450 [5] (FIG. 1, Protocol C', saquinavir, human hepatic S9), the “first-pass inhibition (saquinavir metabolite generation)” value is given as “essentially ineffective first-pass inhibitors”.

Regarding `CC(C)=CCC/C(C)=C/COc1c2ccoc2cc2oc(=O)ccc12` [bergamottin], in the data set with Human Cytochrome P450 [1], the first-pass effect effectiveness entry is on record as “ineffective”. Also, the “first-pass inhibition (saquinavir metabolite generation)” value with Human Cytochrome P450 [5] was “essentially ineffective first-pass inhibitors”.
